Experiment: Solubility

CO[C@]12CC[C@@]3(C[C@@H]1[C@](C)(O)C(C)(C)C)[C@H]1Cc4ccc(O)c5c4[C@@]3(CCN1CC1CC1)[C@H]2O5 [Buprenorphine, (5R,6R,7R,9R,13S,14S)-17-Cyclopropylmethyl-7-[(S)-3,3-dimethyl-2-hydroxybutan-2-yl]-6-methoxy-4,5-epoxy-6,14-ethanomorphinan-3-ol]
Solubility in polysiloxanes: extremely low solubility

— patent US20200306204A1, “TRANSDERMAL DELIVERY SYSTEM COMPRISING BUPRENORPHINE” (LTS Lohmann Therapie-Systeme AG, priority 2011, published 2020)
